The results in this text go back to ChEMBL document CHEMBL1201862, “PubChem BioAssay data set” (2004).

In general, GI50 refers to the concentration giving 50% growth inhibition.

Test systems include ACHN; COLO 205; HCT-15; HL-60; HOP-62; HT-29; KM12; NCI-H460; OVCAR-3; OVCAR-4; OVCAR-5; RXF 393; SF-539; SK-MEL-2; SK-MEL-5; SK-OV-3; SR; TK-10; UACC-257; UO-31.
Assay in all cases: DTP human tumour cell line panel, 48 h

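Where inhibition never reached the appropriate level, the endpoint shown equals the highest concentration tested. Otherwise, values were interpolated linearly from a five-concentration, 48-hour dose response in 96-well plates. At the GI50, growth is halved.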 Calls of active or inactive are those of the source. Rule as the data show it: active = GI50 up to about 1.1 µM and inactive = higher.

Regarding `COc1ccc2[nH]c(C(=O)N3CC(CCl)c4c3cc(N)c3ccccc43)cc2c1` (stereo unspecified), the GI50 with ACHN was < 0.01 µM (active); with COLO 205 it was < 0.0105 µM (active); in the assay on HCT-15 it was under 0.01 µM; with HL-60, < 0.01 µM (active); with HOP-62, < 0.01 µM (active); with HT-29, < 0.01 µM (active). In addition, the GI50 in the assay with KM12 is < 0.01 µM (active); in the assay on NCI-H460, < 0.01 µM (active); with OVCAR-3 it was 0.0139 µM (active); in the assay on OVCAR-4 it was < 0.01 µM (active); in the assay on OVCAR-5, < 0.01 µM (active); with RXF 393, < 0.01 µM (active). The GI50 in the assay on SF-539 was < 0.01 µM (active); in the assay with SK-MEL-2, 0.0122 µM (active); in the assay with SK-MEL-5, < 0.01 µM (active); in the assay with SK-OV-3, < 0.014 µM (active); with SR it was < 0.01 µM (active); in the assay on TK-10, < 0.01 µM (active). Further, the GI50 with UACC-257 was 0.0119 µM (active); in the assay on UO-31, < 0.01 µM (active).
`COC1=CC(=O)c2c(c(COC(C)=O)cn2C)C1=O`: the GI50 is 0.0306 µM (active) in the assay on ACHN; 0.0282 µM (active) in the assay on COLO 205; 0.0197 µM in the assay with HCT-15; 0.299 µM (active) in the assay with HL-60; 0.0261 µM (active) with HT-29; 0.0962 µM (active) in the assay with KM12. In addition, the GI50 with NCI-H460 was 0.115 µM (active); in the assay on OVCAR-3 it was 0.158 µM (active); with OVCAR-4, 0.257 µM (active); with OVCAR-5, 0.0223 µM (active); in the assay on RXF 393, 0.0809 µM (active); in the assay with SF-539, 0.138 µM (active). Moreover, the GI50 with SK-MEL-2 was 0.163 µM (active); with SK-MEL-5, 0.118 µM (active); in the assay on SK-OV-3, 0.119 µM (active); in the assay with SR, 0.211 µM (active); in the assay with TK-10 it was 0.0408 µM (active); in the assay on UACC-257, 0.334 µM (active). The GI50 with UO-31 is 0.159 µM (active).
Consider `COc1ccc2oc3c(ccc[n+]3C)c(=O)c2c1`, for which the GI50 in the assay on ACHN is > 100 µM (inactive); in the assay on COLO 205, > 100 µM (inactive); in the assay on HCT-15 it was over 100 µM; in the assay on HL-60 it was > 100 µM (inactive); in the assay on HOP-62, > 100 µM (inactive); in the assay on HT-29, > 100 µM (inactive). Also, the GI50 in the assay with KM12, in the assay with NCI-H460, in the assay with OVCAR-3, with OVCAR-4, in the assay on OVCAR-5 and with RXF 393 was > 100 µM (inactive) in each case. Also, the GI50 in the assay on SF-539, in the assay with SK-MEL-2, in the assay on SK-MEL-5, in the assay with SK-OV-3, in the assay on SR and in the assay with TK-10 was > 100 µM (inactive) each time. Further, the GI50 in the assay with UO-31 was > 100 µM (inactive).
In the case of `CCN(CC)CCCNC(=O)c1ccccc1Nc1c(Cl)cccc1Cl`, the GI50 is 10.2 µM (inactive) in the assay with ACHN; 12.7 µM (inactive) in the assay on COLO 205; 12.6 µM with HCT-15; 3.18 µM (inactive) with HL-60; 11.9 µM (inactive) with HOP-62; 4.23 µM (inactive) in the assay with HT-29. Besides, the GI50 is 7.31 µM (inactive) in the assay with OVCAR-4; 11.7 µM (inactive) in the assay on OVCAR-5; 8.11 µM (inactive) with RXF 393; 11.4 µM (inactive) in the assay on SF-539; 2.96 µM (inactive) in the assay with SK-MEL-5; 14.2 µM (inactive) in the assay with SK-OV-3. Also, the GI50 in the assay with SR is 10.8 µM (inactive); with TK-10, 11.3 µM (inactive); in the assay with UACC-257, 3.03 µM (inactive); with UO-31, 6.79 µM (inactive).
In the case of `O=C(O)CC/C(=N\Nc1nsc2ccccc12)c1ccccc1`, the GI50 was 70.6 µM (inactive) with ACHN; > 100 µM (inactive) in the assay with COLO 205; 36 µM with HCT-15; 25.4 µM (inactive) in the assay on HL-60; 97.5 µM (inactive) with HOP-62; 34.4 µM (inactive) with HT-29. Also, the GI50 was > 100 µM (inactive) with KM12; 33.6 µM (inactive) in the assay with NCI-H460; 26.5 µM (inactive) in the assay with OVCAR-3; 58.5 µM (inactive) with OVCAR-4; > 100 µM (inactive) in the assay on OVCAR-5; 39.1 µM (inactive) with RXF 393. The GI50 is > 100 µM (inactive) in the assay on SF-539; > 100 µM (inactive) in the assay with SK-MEL-2; 79.6 µM (inactive) with SK-MEL-5; 24.9 µM (inactive) in the assay with SR; > 100 µM (inactive) in the assay on TK-10; 57.3 µM (inactive) in the assay on UACC-257. For the same compound, the GI50 in the assay on UO-31 was > 100 µM (inactive).
For `Cc1cccc2sc(-c3ccc(O)cc3)nc12`, the GI50 is 16.5 µM (inactive) in the assay with ACHN; 14.9 µM (inactive) with COLO 205; 12.6 µM with HCT-15; 15.9 µM (inactive) in the assay with HL-60; 15.3 µM (inactive) with HT-29; 15.5 µM (inactive) in the assay with KM12. For the same compound, the GI50 is 18.1 µM (inactive) in the assay with NCI-H460; 16.1 µM (inactive) in the assay with OVCAR-3; 16 µM (inactive) in the assay on OVCAR-4; 16.4 µM (inactive) with OVCAR-5; 16.9 µM (inactive) in the assay on RXF 393; 21.5 µM (inactive) with SF-539. The GI50 in the assay on SK-MEL-2 was 17.7 µM (inactive); in the assay on SK-MEL-5 it was 5.81 µM (inactive); in the assay with SK-OV-3, 19.6 µM (inactive); in the assay with SR, 22 µM (inactive); in the assay with TK-10, 22.5 µM (inactive); in the assay on UACC-257, 18.8 µM (inactive). Besides, the GI50 in the assay with UO-31 was 13.6 µM (inactive).
As for `O=C(Nc1ccc(I)cc1C(=O)NCCO)c1cccs1`, the GI50 was > 100 µM (inactive) in the assay with ACHN; > 100 µM (inactive) with COLO 205; over 100 µM in the assay on HCT-15; > 100 µM (inactive) in the assay with HL-60; > 100 µM (inactive) in the assay with HOP-62; > 100 µM (inactive) in the assay on HT-29. Besides, the GI50 with KM12 is > 100 µM (inactive); in the assay with NCI-H460 it was 85.3 µM (inactive); with OVCAR-3, > 100 µM (inactive); with OVCAR-4, > 100 µM (inactive); in the assay with OVCAR-5 it was > 100 µM (inactive); in the assay on RXF 393 it was > 100 µM (inactive). The GI50 with SF-539 is > 100 µM (inactive); in the assay with SK-MEL-2 it was > 100 µM (inactive); in the assay on SK-MEL-5, > 100 µM (inactive); in the assay with SK-OV-3 it was > 100 µM (inactive); in the assay on SR, 49.7 µM (inactive); in the assay on UACC-257 it was > 100 µM (inactive). Moreover, the GI50 with UO-31 was > 100 µM (inactive).
